Target: T1, AlaRS E337K binding to Nrp1 (Homo sapiens, UniProt P49588, E337K)
T1 construct: expressed in transfected cells
T1 sequence (P49588 1-968 E337K): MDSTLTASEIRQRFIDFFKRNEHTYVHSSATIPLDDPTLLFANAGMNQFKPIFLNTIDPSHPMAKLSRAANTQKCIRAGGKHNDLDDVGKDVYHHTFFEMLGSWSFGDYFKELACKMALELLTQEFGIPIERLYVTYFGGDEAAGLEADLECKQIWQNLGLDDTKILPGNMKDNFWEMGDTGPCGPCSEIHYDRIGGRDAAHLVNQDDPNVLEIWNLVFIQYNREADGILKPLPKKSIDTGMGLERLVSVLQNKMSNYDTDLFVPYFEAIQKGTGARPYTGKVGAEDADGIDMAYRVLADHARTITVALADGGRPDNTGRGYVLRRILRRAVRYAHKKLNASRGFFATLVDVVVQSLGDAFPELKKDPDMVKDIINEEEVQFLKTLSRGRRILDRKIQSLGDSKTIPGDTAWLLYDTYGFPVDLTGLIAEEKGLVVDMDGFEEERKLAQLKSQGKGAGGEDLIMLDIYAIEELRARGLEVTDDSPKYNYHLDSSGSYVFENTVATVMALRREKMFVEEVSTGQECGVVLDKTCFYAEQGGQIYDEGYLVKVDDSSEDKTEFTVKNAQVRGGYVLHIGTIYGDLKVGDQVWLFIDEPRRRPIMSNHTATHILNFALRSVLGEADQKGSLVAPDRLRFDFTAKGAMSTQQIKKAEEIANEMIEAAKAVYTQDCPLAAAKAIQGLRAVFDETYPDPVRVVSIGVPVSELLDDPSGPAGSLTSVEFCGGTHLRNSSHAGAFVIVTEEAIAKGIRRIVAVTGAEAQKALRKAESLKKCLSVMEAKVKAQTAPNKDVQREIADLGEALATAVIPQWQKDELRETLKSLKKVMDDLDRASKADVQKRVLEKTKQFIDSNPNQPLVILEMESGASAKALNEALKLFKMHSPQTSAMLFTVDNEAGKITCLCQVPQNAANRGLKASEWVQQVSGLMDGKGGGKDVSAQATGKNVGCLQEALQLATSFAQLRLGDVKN
Test: Co-IP of HA-AlaRS mutant with Nrp1 in transfected cells
Assay type: cell-based
Details: 20 µM Tanshinone I for 24 h, ImageJ, average of three repeats
Procedure: To further investigate whether Tanshinone I-induced conformational changes in AlaRS CMT mutants affect their interaction with Nrp1, Co-IP experiments were performed in cells treated with Tanshinone I. By comparing Co-IP results obtained before and after treatment, we assessed the influence of the drug on the binding strength and mode between the AlaRS CMT mutants and Nrp1. […] To confirm the direct effect of Tanshinone I on the interaction between AlaRS CMT mutants and Nrp1, pull-down experiments were performed. […] Given that the interaction between AlaRS mutants and Nrp1 is associated with disease progression in CMT, the ability of Tanshinone I to disrupt this binding highlights its potential to intervene in the pathogenic mechanisms of these diseases.
Figure 7 The impact of Tanshinone I on the interaction between AlaRS mutants and Nrp1. (A) Co-IP assays were conducted to assess the binding between HA-AlaRS mutants and Nrp1, both with and without treatment with 20 µM Tanshinone I for 24 h. […] (C) Pull down assay was performed to detect the binding between AlaRS mutants and GST-Nrp1 b1 with or without 20 µM Tanshinone I. (D) Relative quantification statistics of the AlaRS mutants pulled down from the GST pull down experiments after Tanshinone I treatment were performed using ImageJ. (E) The cell viability of 293T and NSC34 cells treated with different concentrations of Tanshinone I was assessed using the CCK-8 assay over a 24 h period. TEXT PRINTED IN THE PICTURE: (B) Tanshinone I: Mean density band (N71Y): 0.60; Mean density band (G102R): 0.53; Mean density band (R326W): 0.50; Mean density band (R329H): 0.50; Mean density band (E337K): 0.62 | (D) Tanshinone I: Mean density band (N71Y): 0.82; Mean density band (G102R): 0.76; Mean density band (R326W): 0.84; Mean density band (R329H): 0.84; Mean density band (E337K): 0.90
Total protein was extracted from cells using RIPA buffer (50 mM Tris-HCl pH 7.4, 150 mM NaCl, 1% NP40, 1 mM EDTA) supplemented with a protease and phosphatase inhibitor cocktail (Roche, Basel, Switzerland). After SDS-PAGE, the protein on the gel was transferred to a PVDF membrane (Bio-Rad, Hercules, CA, USA) and then blocked with 5% non-fat dry milk in TBST for 1 h. Then, the membranes were incubated with the indicated primary antibodies and corresponding HRP-conjugated secondary antibodies. Signals were detected using the Bio-Rad ChemiDoc system (Bio-Rad, Shanghai, China). The following antibodies were used: Flag (Ray antibody biotech, Beijing, China, 1:3000), HA (Ray antibody biotech, Beijing, China, 1:3000), and GAPDH (Ray antibody biotech, Beijing, China, 1:5000).
To detect the binding of Nrp1 and AlaRS mutants in cells, whole-cell lysates (500 μg) were treated overnight with 2 μg of anti-Flag antibody in RIPA buffer. Next, Protein A/G agarose beads (#sc-2003, Santa Cruz Biotechnology, Santa Cruz, CA, USA) were applied to the lysates and the samples were further treated for 8–12 h with rotation. Samples were washed three times with RIPA buffer. Subsequently, the immunoprecipitations were resuspended into 2 × SDS-loading buffer. The samples were then boiled for 10 min and detected using Western blot. The experiment was repeated three times.

Mean density band (E337K), relative quantification of AlaRS mutant immunoprecipitated: 0.62
Structure (SMILES): Cc1coc2c1C(=O)C(=O)c1c-2ccc2c(C)cccc12 [Tanshinone I]
